We go through 4 compounds from US20110150959A1, “WIPE WITH ODOUR CONTROL SUBSTANCE” (SCA Hygiene Products AB, priority 2008, published 2011).

For data set [1] the following is noted: autoxidation at 100° C., fatty acids not treated with antioxidants; cited from earlier work.
Data set [2] in a line: Odour reduction by lipid-treated fluff pulp, headspace SPME-GC/MS. The settings on record: pulp with 30% by weight lipid; 1000 ng/ml odour substance; 3 h + 0.5 h at 35° C.; vs untreated pulp. Here is the method:
Sheets of sulfate pulp from Weyerhaeuser Inc., with the designation NB416, were impregnated with a solution of the tested oil/fat in hexane. To a pulp sheet weighing 10 g was added a solution of 4.29 g oil in 4.29 g hexane. The solution was evenly distributed over the surface of the sheets. When the hexane had evaporated the sheets contained 30% by weight oil/fat and 70% by weight pulp fibers. The treated sheets were defibrated in a Braun multimixer MX32 to produce fluff pulp.
1 g of treated pulp was put in a 60 ml vial, after which 3.9 ml of 0.01 M phosphate buffered saline solution pH 7.4 from Sigma was added. Then 0.1 ml PEG300 with DMS (dimethyl sulfide), DMDS (dimethyl disulfide) and IVA (isovaleric aldehyde) was added so that the concentration of each odour substance in the final solution was 1000 ng/ml.
After 3 h at 35° C. a SPME fiber (Supelco), 75 μm Carboxen-PDMS, was injected into the headspace above the pulp and after an additional 0.5 h the SPME fiber was analyzed with gas chromatography (GC), Thermo Finnigan Trace, with a MS detector. The peak area of each odour substance was determined for samples with treated pulp and the untreated reference pulp. The GC settings were:
Temperature program for GC: 30° C. (7 min), 3° C./min-70° C. (0 min), 40° C./min-250° C. (7 min). Column: ZB-624 (Zebron), 30 m, 0.25 mm i.d. 1.40 μm film thickness Inlet temperature: 250° C. Transfer line: 220° C.
MS: SIM (single ion monitoring). When DMS, IVA and DMDS were analyzed the following mass numbers were detected: 45, 46, 47, 57, 58, 61, 62, 79, 86 and 94.
The odour reduction was determined by comparing the peak area of the tested sample with the same peak area achieved when testing the untreated reference pulp. The calculation of the odour reduction in percent was made by the equation:
Odour reduction=100×(1−Actual peak area/Peak area of sample with untreated pulp)
These ozonized lipids were tested for their odour reducing effect on treated pulp in the same manner as under Trial 1 above. The only exception in the laboratory procedure was the method for treatment of the pulp with Acolectin.

Data set [3] can be described thus: Peroxide value, AOCS Official Method Cd 8-53. It counts as physicochemical. To be noted: Trial 2 lipids after ozonization; lipids used for treatment of wipes. Here is the method: The degree of oxidation was tested by determining the peroxide value according to the test method AOCS Official Method Cd 8-53 Surplus 2003. The peroxide value for both the starting oils/fats and the ozonized oils/fats was determined.

Data set [4] in a line: Odour reduction by lipid-treated spunlaced nonwoven wipes, headspace SPME-GC/MS. To be noted: 1 g spunlaced nonwoven treated with 2 g lipid; 1000 ng/ml odour compound. Here is the method:
A spunlaced nonwoven with the trade name Fibrella 7160, available from Suominen (Finland) was used in these experiments. This material, which consists of about 60% polypropylene fibres and 40% rayon fibres, has a basis weight of about 50 g/m^2. Pieces with a weight of 1 g and an area of 0.020 m^2 were cut from the spunlaced nonwoven sheet. These pieces were then treated with lipids. 2 g of the lipid was dissolved in 4 g of either hexane or acetone and evenly distributed on the piece of nonwoven. Acetone was used to dissolve all ozonated oils and oleic acid while the other not ozonated oils where dissolved in hexane. After several hours, when the solvent had evaporated, the nonwoven pieces were folded and inserted into 60 ml vials, used for SPME analysis. The vials were then flushed with nitrogen gas and sealed.
Vials with a volume of 60 ml containing 1 g spunlaced nonwoven treated with 2 g lipid were used in these tests. The laboratory procedure was the same as earlier described when evaluating the odour reduction of fluffed pulp, see page 10-11. To each vial was added 3.9 ml phosphate buffered saline solution, pH 7.4 and 0.1 ml PEG300 with DMS, DMDS and IVA. The total concentration of each odour compound was 1000 ng/ml.

With `CCCCCCCCCCCCCCCCCC(=O)O` [Stearic acid], the “Relative rate of oxidation” value in data set [1] is 0.6.
On to `CCCCC/C=C\C/C=C\CCCCCCCC(=O)OCC` [Ethyl linoleate, ethyl linoleate], for which, in data set [2], the “Reduction of odour substances in %, DMDS” value came out at 0%; the “Reduction of odour substances in %, DMS” value turned out to be 0%; the “Reduction of odour substances in %, IVA” value worked out at 0%.
As to `CCCCC/C=C\C/C=C\CCCCCCCC(=O)O` [Linoleic acid], the “Relative rate of oxidation” value in data set [1] was 64.
`CCCCCCCC/C=C\CCCCCCCC(=O)O` [Oleic acid, oleic acid] showed a Peroxide value in data set [3] of 3.1 meqv./kg. In data set [2], the “Reduction of odour substances in %, DMDS” value is 19.2%; the “Reduction of odour substances in %, DMS” value came out at 67.5%; the “Reduction of odour substances in %, IVA” value is 9.3%. In data set [4], the “Reduction of odour substances in %, DMDS” value is on record as 83.6%; the “Reduction of odour substances in %, DMS” value amounted to 67.4%; the “Reduction of odour substances in %, IVA” value came out at 74.5%. Further, the “Relative rate of oxidation” value in data set [1] was 6.
